Experimental data published in patent US20140378529A1, “COLLATERAL GENE INACTIVATION BIOMARKERS AND TARGETS FOR CANCER THERAPY” (Board Regents, The University of Texas System, priority 2011, published 2014).
Like-named read-outs stand apart in the source and are kept apart here.

Assays:
[1] = Table 5, cited from earlier work
enolase = details: cited from earlier work
[2] = test system: ENO1-null cells (D423-MG, Gli56); assay: Cell growth / toxicity in ENO1-null GBM cells; type: cell-based, human; details: for growth of ENO1-null cells: doxycycline-inducible TRIPZ, D423-MG
Description: (§1) For crystal violet assays, 10,000 cells were seeded in a 6-well plate for each time point. At the indicated time point, cells were fixed with 10% formalin and stained with crystal violet solution for 1 hour. Dye extraction was performed using 10% acetic acid solution and absorbance was read at 590 nm. Cell titer Glo® experiments were performed as indicated by the manufacturer. 1000 cells/well were plated in a 96 well plate for each time point and luminescence readings were taken every 24 hours. All experiments were performed in triplicate.
(§2) Structure and purity were verified by NMR. […] Given the instability of the compound, media was replaced every 5 days and fresh inhibitor added with fresh media.
(§3) Cell growth of shRNA- or PhAH-treated cell lines was assayed either through crystal violet staining or using the Promega CellTiter-Glo proliferation kit (Roche) or alternatively, in vivo, by measuring confluence with the IncuCyte (Essen BioScience). Growth curves using the IncuCyte were generated by imaging every 2 hours with quadruplicate replicates. For crystal violet assays, 10^4 cells were seeded in a 6-well plate for each time point. At the indicated time point, cells were fixed with 10% formalin and stained with crystal violet solution for 1 h. Dye extraction was performed using 10% acetic acid solution, and absorbance was read at 590 nm. CellTiter-Glo experiments were performed according to the manufacturer's instructions; 10^3 cells/well were plated in a 96-well plate for each time point, and luminescence readings were taken every 24 h. All experiments were performed in triplicate. Soft agar (anchorage-independent) growth was monitored in 6-well plates seeded with 10^4 cells of the indicated genotype. The medium contained DMEM with 10% FBS; the top agar contained 0.4% low melting agarose, while the bottom agar contained 1% low melting agarose. Growth was monitored by fluorescence (GFP) and after 28 days colonies were stained with iodonitrotetrazolium chloride (Sigma-Aldrich) and counted.
Structure and purity were verified by NMR. […]

enolase 2 protein = assay: shRNA knockdown of ENO2 expression (western blot); type: cell-based, human; details: pGIPZ vector; D423-MG and D502-MG; vs shNT
Source text: Two of these hairpins were in the pLKO.1 vector (ShENO2-1 and shENO2-2) and the remaining two were in the Expression Arrest GIPZ (shENO2-3) and TRIPZ (shENO2-4) shRNAmir vectors (Open Biosystems, Huntsville, Ala.). The hairpin in the GIPZ vector was cloned into the TRIPZ vector using a protocol provided by the manufacturer. The TRIPZ vector is a doxycycline inducible system with a Red fluorescent protein reporter which is only expressed upon doxycycline induction. Recombinant lentivirus was produced by transient transfection of 293T cells following a standard protocol. Briefly, 72 μg of the shRNA plasmid, 54 μg of Delta 8.9 and 18 μg of VSVG plasmids were transfected using Fugene® (Roche, Indianapolis, Ind.) into 293T cells plated in 245 mm2 dishes. Viral supernatant was collected 72 hours after transfection, concentrated by centrifugation at 23,000 rpm and resuspended in cell growth medium. For transduction, viral solutions were added to cell culture medium containing 4 μg/mL polybrene; 48 hours after infection cells were selected using 2 μg/mL puromycin and tested for ENO2 knockdown by western blot.
The hairpin in the GIPZ vector was cloned into the TRIPZ vector using a protocol provided by the manufacturer. The TRIPZ vector is a doxycycline-inducible system with a red fluorescent protein reporter that is expressed only upon doxycycline induction. […]

D423-MG ENO1-null cells = assay: Soft agar colony formation assay; type: cell-based, human; details: vs shNT
Description: Anchorage-independent growth assays were performed in duplicate or triplicate in 6 well plates. 10^4 of indicated cells per well were seeded in DMEM+10% FBS containing 0.4% low-melting agarose on the top of bottom agar containing 1% low-melting agarose DMEM+10% FBS. After 14-21 days, colonies were stained with iodonitrotetrazoliumchloride (Sigma-Aldrich) and counted.
as §3, with “At the indicated time point, cells were fixed with 10% formalin and stained with crystal violet solution for 1 h.” left out, “All experiments were performed in triplicate.” left out, “The medium contained DMEM with 10% FBS; the top agar contained 0.4% low melting agarose, while the bottom agar contained 1% low melting agarose.” left out

D423-MG cells = assay: Orthotopic brain tumor formation; type: in vivo, SCID mice; details: D423-MG injected intracranially; vs shNT
Description: Injection of D423-MG cells was performed as previously described (in Zheng et al., 2008) SCID mice (Charles River) aged 6-12 weeks were placed into stereotactic apparatus equipped with a Z axis (Stoelting). A hole was bored in the skull 0.5 mm anterior and 3.0 mm lateral to the bregma using a dental drill. One hundread thousand cells in Hanks Buffered Salt Solution were injected into the right caudate nucleus 3 mm below the surface of the brain using a 10-μl Hamilton syringe with an unbeveled 30 gauge needle. The scalp was closed using a 9-mm Autoclip Applier. Animals were followed daily for the development of neurological deficits.
The in vivo tumorigenic potential of D423-MG cells transduced with non-targeting hairpin or shENO2-3 delivered through pGIPZ was determined as previously described (Zheng et al., 2008). SCID mice (Charles River) under deep anesthesia were placed into a stereotactic apparatus equipped with a z axis (Stoelting). Then, 3×10^5 cells were injected intracranially into the right caudate nucleus 3 mm below the surface of the brain, using a 10-μl Hamilton syringe. The animals were followed daily for development of neurological deficits. All mice experiments were performed with the approval of the Harvard Cancer Center and Dana-Farber Cancer Institute Institutional Animal Care and Use Committee.

SK-MEL-2 cells [3] = assay: Borrelidin growth and cytotoxicity, SK-MEL-2 (TARS Het); type: cell-based, human
Description: (§4) The effect of various concentrations of Borrelidin on the growth of the four melanoma cells lines over time was also studied (FIG. 21).
To this end, the inventors ran the same live growth assay, except starting with a high confluence of SK-MEL-2 cells at time zero. Under these conditions it became apparent that concentrations of Borrelidin at or above 15 nM are cytotoxic to SK-MEL-2 cells, while lower concentrations are growth inhibitory (FIG. 22).

SK-MEL-5 cells = assay: Borrelidin growth, SK-MEL-5 (TARS WT); type: cell-based, human
Source text: as §4

HMEL cells = assay: Borrelidin growth, HMEL (TARS WT); type: cell-based, human
Source text: as §4

451 Lu cells = assay: Borrelidin growth, 451 Lu (TARS deficient); type: cell-based, human
Source text: as §4

SK-MEL-2 cells [4] = details: NCI-60 database; cited from earlier work
ENO1-null D423-MG cells = assay: Relative growth with receptor tyrosine kinase inhibitors or rapamycin; type: cell-based, human; details: combination of sorafenib, lapatinib and PHA665752
Source text: Given the instability of the compound, the medium was replaced every 5 days and fresh inhibitor added with fresh medium.

[5] = test system: ENO1 WT GBM cells and normal astrocytes; assay: Cell growth / toxicity in ENO1 WT GBM cells and normal astrocytes; type: cell-based, human
Description: as §1, §2
(§5) Cell growth of shRNA- or PhAH-treated cell lines was assayed either through crystal violet staining or using the Promega CellTiter-Glo proliferation kit (Roche) or alternatively, in vivo, by measuring confluence with the IncuCyte (Essen BioScience). […] Dye extraction was performed using 10% acetic acid solution, and absorbance was read at 590 nm. CellTiter-Glo experiments were performed according to the manufacturer's instructions; 10^3 cells/well were plated in a 96-well plate for each time point, and luminescence readings were taken every 24 h. […] Soft agar (anchorage-independent) growth was monitored in 6-well plates seeded with 10^4 cells of the indicated genotype. […]

[6] = test system: ENO1 heterozygous cells (D502-MG and U343); assay: Cell growth / toxicity in ENO1 heterozygous GBM cells; type: cell-based, human
Description: as §1, §2, §5

yeast enolase = yeast enolase (Saccharomyces cerevisiae, UniProt P00924); details: read-out: inhibitory constant on yeast enolase; Anderson et al., 1984; cited from earlier work
Sequence of yeast enolase (P00924 whole entry): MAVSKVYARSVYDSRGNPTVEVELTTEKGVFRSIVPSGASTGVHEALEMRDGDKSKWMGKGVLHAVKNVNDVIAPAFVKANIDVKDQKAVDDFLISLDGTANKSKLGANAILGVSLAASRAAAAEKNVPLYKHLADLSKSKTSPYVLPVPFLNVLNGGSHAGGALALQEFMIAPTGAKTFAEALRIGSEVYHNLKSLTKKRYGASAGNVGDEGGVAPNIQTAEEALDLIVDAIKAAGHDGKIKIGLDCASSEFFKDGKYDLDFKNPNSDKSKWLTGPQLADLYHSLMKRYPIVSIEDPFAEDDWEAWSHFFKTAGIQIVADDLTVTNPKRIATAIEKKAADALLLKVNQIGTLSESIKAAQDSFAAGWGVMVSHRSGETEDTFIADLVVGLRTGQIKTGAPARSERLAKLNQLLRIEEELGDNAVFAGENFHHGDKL

[7] = Table 5, published enolase inhibitors
[8] = Table 4, known enolase inhibitors
[9] = printed: SK-MEL-2 cell line, which is also wild-type for TARS

## 2-fluoro-2-phosphonoacetohydroxamate
[1]
  pKa: 8.1
enolase; [7]
  Ki: 1400 nM

## 5′-CGGCCTTCAACGTGATCAA-3′ (expressed or natural sequence) [shENO2-3]
[2]
  growth of ENO1-null cells: dramatically inhibited growth
[2]; pGIPZ, only in the context of ENO1 genomic deletion (D423-MG)
  cell proliferation: dramatically slowed
Enolase 2 protein
  reduction of expression of ENO2: > 70%
D423-MG ENO1-null cells
  soft agar colony formation: dramatically decreased
D423-MG cells
  in vivo tumorigenic properties: dramatically decreased

## 5′-GGGACTGAGAACAAATCCA-3′ (expressed or natural sequence) [shENO2-4]
[2]
  growth of ENO1-null cells: dramatically inhibited growth

## NC=C(OP(=O)(O)O)C(=O)O [3-aminoenolpyruvate-2-phosphate]
enolase; [8]
  Ki: 100 nM
enolase; [7]
  Ki: 100 nM

## O=[N+]([O-])C(CO)CP(=O)(O)O (centres unmarked) [(3-hydroxy-2-nitropropyl)phosphonate]
[1]
  pKa: 8.1
enolase; [8]
  Ki: 1 nM
enolase; [7]
  Ki: 6 nM

## O=[N+]([O-])CCP(=O)(O)O [(nitroethyl)phosphonate]
[1]
  pKa: 8.5
enolase; [8]
  Ki: 1000 nM
enolase; [7]
  Ki: 1000 nM

## C[C@@H]1C[C@H](C)C[C@H](C)[C@@H](O)CC(=O)O[C@H]([C@@H]2CCC[C@H]2C(=O)O)C/C=C/C=C(/C#N)[C@H](O)[C@@H](C)C1 [Borrelidin]
SK-MEL-2 cells [3]; SK-MEL-2
  effect on growth at low concentrations: stalled the growth
  lowest concentration with at least partial sensitivity: ≥ 3.9 nM
SK-MEL-2 cells [3]; SK-MEL-2, high confluence at time zero
  cytotoxic concentration: ≥ 15 nM
SK-MEL-2 cells [3]; SK-MEL-2, low initial cell density
  concentration that completely inhibited growth: 31.25 nM
SK-MEL-5 cells; SK-MEL-5
  effect on growth at low concentrations: minimal to no effect
SK-MEL-5 cells; [9]
  sensitivity of growth at 62.5 nM: partially sensitive
  sensitivity of growth at concentrations less than 31.25 nM: largely resistant
HMEL cells
  effect on growth at low concentrations: minimal to no effect
HMEL cells; 62.5 nM
  sensitivity of growth at the highest tested concentration: resistant
451 Lu cells
  concentration that nearly inhibited growth: 62.5 nM
  sensitivity to Borrelidin treatment: intermediate sensitivity
SK-MEL-2 cells [4]
  Sensitivity to borrelidin (IC50) in a panel of cancer cell lines: lowest IC50

## O=CC(OP(=O)(O)O)C(=O)O [D-tartronate semialdehyde phosphate]
enolase; [8]
  Ki: 10000 nM
enolase; [7]
  Ki: 10000 nM

## F [Fluoride]
enolase; [8]
  Ki (M): Varied depending
enolase; [7]
  Ki (M): Varied

## Cc1[nH]c(/C=C2\C(=O)Nc3ccc(S(=O)(=O)Cc4c(Cl)cccc4Cl)cc32)c(C)c1C(=O)N1CCC[C@@H]1CN1CCCC1 [PHA665752]
ENO1-null D423-MG cells
  sensitivity of ENO1-null D423-MG cells versus ENO1 WT GBM cell lines: no more sensitive

## O=C(CP(=O)(O)O)NO [PhAH, phosphonoacetohydroxamate]
[5]
  concentration above which PhAH has more than minimal effect on growth: higher than 50 μM
[6]
  times lower doses for similar growth inhibition compared with normal human astrocytes: about 8 times
Yeast enolase
  Ki: 0.015 nM
[1]; listed as Phosphonoacetohydroxamate
  pKa: 10.2

## CS(=O)(=O)CCNCc1ccc(-c2ccc3ncnc(Nc4ccc(OCc5cccc(F)c5)c(Cl)c4)c3c2)o1 [lapatinib]
ENO1-null D423-MG cells
  sensitivity of ENO1-null D423-MG cells versus ENO1 WT GBM cell lines: no more sensitive

## CC[C@H]1/C=C/C=C/C[C@@H](C)[C@H](O)[C@@](C)(O)C(=O)[C@@H](C)[C@H](O)[C@@H](C)C(=O)[C@@H](C)[C@H](O)[C@@H](C)/C=C/C(=O)O[C@@H]2[C@H](C)[C@H](CC1)O[C@]1(CC[C@H](C)[C@H](C[C@@H](C)O)O1)[C@H]2C [oligomycin]
[6]; oligomycin 10 nM
  effect of oligomycin on its own: minimal effects

## d-(phosphonoethyl)nitrolate
enolase; [8]
  Ki: 14 nM
enolase; [7]
  Ki: 14 nM
